Non-standard residues stand in square brackets, D forms with d. Residues, ends and D or L forms follow the SMILES beside them. *: point of attachment. X14 = O=C(c1ccc(-n2cncn2)c([N+](=O)[O-])c1)*; X3 = Cc1nc(C(=O)*)nn1-c1ccc([N+](=O)[O-])cc1; X2 = CC(C)n1c(C(F)(F)F)nc2cc(C(=O)*)ccc21; X6 = O=C(COn1c(-c2ccccc2)nc2ccc(Cl)cc21)*; X10 = O=C(c1c(-c2ccccc2)nc2cccc(Cl)n12)*; X4 = Cc1nc(C(=O)*)nn1-c1cccc(C(F)(F)F)c1; X8 = COc1cc(-n2nc(C(=O)*)nc2C)c(Cl)cc1Cl; X11 = Cc1nc(C(=O)*)nn1-c1cc(Cl)cc(Cl)c1; Phe(4-F) = N[C@@H](Cc1ccc(F)cc1)C(=O)O; X13 = Cc1nc(C(=O)*)nn1-c1ccc(Cl)cc1Cl; X9 = O=C(COn1c(-c2ccccc2)nc2ccccc21)*; X5 = Cc1nc(C(=O)*)nn1-c1ccc(Cl)cc1; X7 = O=C(c1ccc2nc(-n3cccc3)sc2c1)*; X1 = Cc1nc(C(=O)*)nn1-c1ccc(F)cc1; X12 = O=C(c1ccc(N2CCNC2=S)cc1)*

20 molecules from patent publication US20060281687A1, “Cyclin groove inhibitors” (priority 2003, published 2006) can be followed below.

Experiment [1] has as its target T1, CDK2/cyclin A (Homo sapiens, UniProt P20248). The experiment is described as follows: Functional kinase assay (phosphorylation of GST-pRb(773-928)). To be noted: recombinant human CDK2/cyclin A; GST-pRb(773-928) substrate; 100 μM ATP; 30 min at 30° C.; read-out: Inhibitory activity IC50 ± SD, Functional kinase assay. The experiment is classed as biochemical. Here is the method: CDK2/cyclin A kinase assays (phosphorylation of natural retinoblastoma protein (pRb)) were performed in 96-well plates using recombinant proteins. To each well were added: 10 μL assay buffer (50 mM HEPES pH 7.4, 20 mM β-glycerophosphate, 5 mM EGTA, 2 mM dithiothreitol, 1 mM NaVO3, and 20 mM MgCl2), 5 μL GST-pRb(773-928) substrate stock solution,10 μL test compound solution, 10 μL (2-5 μg protein) of purified recombinant human CDK2/cyclin A stock. The reaction was initiated by addition of 10 μL/well Mg/ATP mix (15 mM MgCl2, 100 μM ATP with 30-50 kBq per well of [γ-^32P]-ATP) and mixtures were incubated with shaking for 30 min at 30° C. Reactions were stopped on ice, followed by addition of 5 μL/well of glutathione-Sepharose 4B (Amersham Biosciences) and further incubation with shaking for 30 min at room temperature. The mixtures were then filtered on Whatman GF/C filterplates and washed 4 times with 0.2 mL/well of 50 mM HEPES containing 1 mM ATP. Plates were dried, sealed, and scintillant (Microscint 40) was added. Incorporated radioactivity was measured using a scintillation counter (TopCount, Packard Instruments, Pangbourne, Berks, UK). Half-maximal inhibition (IC50) was calculated from dose—response curves.

Experiment [2] addresses T1, CDK2/cyclin A. The experiment is described as follows: Competitive binding assay (fluorescence polarisation, fluorescein tracer peptide). To be noted: purified recombinant human CDK2/cyclin A; tracer fluorescein-Ahx-His-Ala-Lys-Arg-Arg-Leu-Ile-Phe-NH2; 1 h room temperature; read-out: Inhibitory activity IC50 ± SD, Competitive binding assay. Here is the method:
Competitive Binding Assay
This assay was performed using half-area black 96-well microtitre plates. To each well were added: 10 μL assay buffer (25 mM HEPES pH 7, 10 mM NaCl, 0.01% Nonidet P-40, 1 mM dithiothreitol), 10 μL test compound solution (in 10% aq DMSO), 10 μL CDK2/cyclin A (ca. 2 μg purified recombinant human kinase complex) in assay buffer, and 10 μL tracer peptide solution (150 nM fluorescein-Ahx-His-Ala-Lys-Arg-Arg-Leu-Ile-Phe-NH2; refer McInnes, C. et al., 2003, Curr. Med. Chem. Anti-Cancer Agents, 3, 57; Atkinson, G. E. et al., 2002, Bioorg. Med. Chem. Lett., 12, 2501) in assay buffer. After incubation with shaking for 1 h at room temperature, fluorescence polarisation at 485-520 nm was measured using a Tecan Ultra reader. Half-maximal inhibition (IC50) was calculated from dose—response curves.
For orientation: Fluorescence polarisation rises when a labelled molecule tumbles more slowly, as on binding a larger partner.

Regarding `COc1cc(-n2nc(C(=O)N[C@@H](CCCNC(=N)N)C(=O)N[C@@H](CC(C)C)C(=O)N[C@@H](CC(N)=O)C(=O)N[C@@H](Cc3ccc(F)cc3)C(N)=O)nc2C)c(Cl)cc1Cl` [Compound 2] (X8-RLN[Phe(4-F)]-NH2), the IC50 at CDK2/cyclin A [1] was determined as 11 ± 7 µM; at CDK2/cyclin A [2], 0.93 ± 0.05 µM.

`CC(C)C[C@H](NC(=O)[C@H](CCCNC(=N)N)NC(=O)COn1c(-c2ccccc2)nc2ccc(Cl)cc21)C(=O)N[C@@H](CC(N)=O)C(=O)N[C@@H](Cc1ccc(F)cc1)C(N)=O` [Compound 11] (X6-RLN[Phe(4-F)]-NH2): the IC50 was found to be 30 ± 16 µM on CDK2/cyclin A [1] and 12 ± 2 µM at CDK2/cyclin A [2].

For `CC(C)C[C@H](NC(=O)[C@H](CCCNC(=N)N)NC(=O)[C@@H](N)CCCNC(=N)N)C(=O)Nc1cccc(Oc2ccccc2)c1` [Compound 24], the IC50 is 21.9 ± 4.9 µM at CDK2/cyclin A [1] and 56.9 ± 1.9 µM on CDK2/cyclin A [2].

In the case of `Cc1nc(C(=O)N[C@@H](CCCNC(=N)N)C(=O)N[C@@H](CC(C)C)C(=O)N[C@@H](CC(N)=O)C(=O)N[C@@H](Cc2ccc(F)cc2)C(N)=O)nn1-c1ccc(F)cc1` [Compound 6] (X1-RLN[Phe(4-F)]-NH2), the IC50 on CDK2/cyclin A [1] is 4.4 ± 0.8 µM; on CDK2/cyclin A [2], 6.1 ± 1.2 µM.

As for `Cc1nc(C(=O)N[C@@H](CCCNC(=N)N)C(=O)N[C@@H](CC(C)C)C(=O)N[C@@H](CC(N)=O)C(=O)N[C@@H](Cc2ccc(F)cc2)C(N)=O)nn1-c1ccc([N+](=O)[O-])cc1` [Compound 7] (X3-RLN[Phe(4-F)]-NH2), the IC50 at CDK2/cyclin A [1] amounted to 5.4 ± 0.9 µM; at CDK2/cyclin A [2] it was 6.4 ± 1.8 µM.

Regarding `Cc1cc(NC(=O)C2CCCCC2C(=O)N[C@@H](CC(C)C)C(=O)N[C@@H](CC(N)=O)C(=O)N[C@@H](Cc2ccc(F)cc2)C(N)=O)no1` (stereo partly shown) [Compound 15], the values for the IC50 at CDK2/cyclin A [1] and on CDK2/cyclin A [2] were 87 ± 14 µM and 219 ± 10 µM, respectively.

Regarding `CC(C)C[C@H](NC(=O)[C@H](CCCNC(=N)N)NC(=O)c1ccc2c(c1)nc(C(F)(F)F)n2C(C)C)C(=O)N[C@@H](CC(N)=O)C(=O)N[C@@H](Cc1ccc(F)cc1)C(N)=O` [Compound 13] (X2-RLN[Phe(4-F)]-NH2), the half-inhibitory concentration (IC50) at CDK2/cyclin A [1] was 21.1 ± 7 µM; on CDK2/cyclin A [2], 2.6 ± 0.4 µM.

Turning to `Cc1nc(C(=O)N[C@@H](CCCNC(=N)N)C(=O)N[C@@H](CC(C)C)C(=O)N[C@@H](CC(N)=O)C(=O)N[C@@H](Cc2ccc(F)cc2)C(N)=O)nn1-c1ccc(Cl)cc1` [Compound 3] (X5-RLN[Phe(4-F)]-NH2), the IC50 on CDK2/cyclin A [1] is 4.3 ± 2.1 µM; on CDK2/cyclin A [2] it was 4.1 ± 1.3 µM.

As to `Cc1nc(C(=O)N[C@@H](CCCNC(=N)N)C(=O)N[C@@H](CC(C)C)C(=O)N[C@@H](CC(N)=O)C(=O)N[C@@H](Cc2ccc(F)cc2)C(N)=O)nn1-c1ccc(Cl)cc1Cl` [Compound 4] (X13-RLN[Phe(4-F)]-NH2), the IC50 on CDK2/cyclin A [1] was determined as 6.4 ± 0.3 µM; at CDK2/cyclin A [2], 3.6 ± 0.6 µM.

`CC(C)C[C@H](NC(=O)[C@H](CCCNC(=N)N)NC(=O)c1ccc2nc(-n3cccc3)sc2c1)C(=O)N[C@@H](CC(N)=O)C(=O)N[C@@H](Cc1ccc(F)cc1)C(N)=O` [Compound 12] (X7-RLN[Phe(4-F)]-NH2): the IC50 on CDK2/cyclin A [1] came to 15.3 ± 3.1 µM; at CDK2/cyclin A [2] it was 4.8 ± 0.4 µM.

With `CC(C)C[C@H](NC(=O)[C@H](CCCNC(=N)N)NC(=O)[C@@H](N)CCCNC(=N)N)C(=O)Nc1cccc(OCc2ccccc2)c1` [Compound 25], the IC50 on CDK2/cyclin A [1] came out at 29.8 ± 12 µM; on CDK2/cyclin A [2], 35 ± 2.03 µM.

`CC(C)C[C@H](NC(=O)[C@H](CCCNC(=N)N)NC(=O)COn1c(-c2ccccc2)nc2ccccc21)C(=O)N[C@@H](CC(N)=O)C(=O)N[C@@H](Cc1ccc(F)cc1)C(N)=O` [Compound 9] (X9-RLN[Phe(4-F)]-NH2): the IC50 on CDK2/cyclin A [1] amounted to 37 ± 6 µM; at CDK2/cyclin A [2], 15 ± 2 µM.

For the molecule `CC(C)C[C@@H](CNc1cccc(Oc2ccccc2)c1)NC(=O)[C@H](CCCNC(=N)N)NC(=O)[C@@H](N)CCCNC(=N)N` [Compound 29], the IC50 came out at 8.55 ± 2.11 µM at CDK2/cyclin A [1] and 22.7 ± 2.72 µM on CDK2/cyclin A [2].

`CC(C)C[C@H](NC(=O)[C@H](CCCNC(=N)N)NC(=O)[C@@H](N)CCCNC(=N)N)C(=O)NCc1cccc(Oc2ccccc2)c1` [Compound 26]: the IC50 on CDK2/cyclin A [1] came to 8.81 ± 1.08 µM; at CDK2/cyclin A [2] it was 4.7 ± 0.7 µM.

For the molecule `CC(C)C[C@H](NC(=O)[C@H](CCCNC(=N)N)NC(=O)c1c(-c2ccccc2)nc2cccc(Cl)n12)C(=O)N[C@@H](CC(N)=O)C(=O)N[C@@H](Cc1ccc(F)cc1)C(N)=O` [Compound 1] (X10-RLN[Phe(4-F)]-NH2), the figures for the IC50 at CDK2/cyclin A [1] and at CDK2/cyclin A [2] were 53 ± 25 µM and 12 ± 2 µM, respectively.

Regarding `Cc1nc(C(=O)N[C@@H](CCCNC(=N)N)C(=O)N[C@@H](CC(C)C)C(=O)N[C@@H](CC(N)=O)C(=O)N[C@@H](Cc2ccc(F)cc2)C(N)=O)nn1-c1cc(Cl)cc(Cl)c1` [Compound 10] (X11-RLN[Phe(4-F)]-NH2), the IC50 at CDK2/cyclin A [1] came to 3.7 ± 0.2 µM; on CDK2/cyclin A [2], 2.1 ± 0.2 µM.

Consider `CC(C)C[C@@H](CNc1cccc(OCc2ccccc2)c1)NC(=O)[C@H](CCCNC(=N)N)NC(=O)[C@@H](N)CCCNC(=N)N` [Compound 30], for which the IC50 came out at 8.37 ± 4.24 µM at CDK2/cyclin A [1] and 58.2 ± 3.82 µM at CDK2/cyclin A [2].

Turning to `Cc1nc(C(=O)N[C@@H](CCCNC(=N)N)C(=O)N[C@@H](CC(C)C)C(=O)N[C@@H](CC(N)=O)C(=O)N[C@@H](Cc2ccc(F)cc2)C(N)=O)nn1-c1cccc(C(F)(F)F)c1` [Compound 14] (X4-RLN[Phe(4-F)]-NH2), the IC50 was found to be 3.65 ± 0.92 µM at CDK2/cyclin A [1] and 2.8 ± 0.42 µM on CDK2/cyclin A [2].

Regarding `CC(C)C[C@H](NC(=O)[C@H](CCCNC(=N)N)NC(=O)c1ccc(N2CCNC2=S)cc1)C(=O)N[C@@H](CC(N)=O)C(=O)N[C@@H](Cc1ccc(F)cc1)C(N)=O` [Compound 5] (X12-RLN[Phe(4-F)]-NH2), the IC50 at CDK2/cyclin A [1] worked out at 19 ± 3 µM; at CDK2/cyclin A [2] it was 5.8 ± 1.6 µM.

`CC(C)C[C@H](NC(=O)[C@H](CCCNC(=N)N)NC(=O)c1ccc(-n2cncn2)c([N+](=O)[O-])c1)C(=O)N[C@@H](CC(N)=O)C(=O)N[C@@H](Cc1ccc(F)cc1)C(N)=O` [Compound 8] (X14-RLN[Phe(4-F)]-NH2): the IC50 at CDK2/cyclin A [1] was 26 ± 5 µM; on CDK2/cyclin A [2], 28 ± 4 µM.

The term IC50 denotes the midpoint of a concentration-inhibition curve.
